Measurements published in patent US10308667B2, “Oxadiazolopyridine derivatives for use as ghrelin O-acyl transferase (GOAT) inhibitors” (Boehringer Ingelheim International GmbH, priority 2016, dated 2019).

The molecules below were run against human GOAT (Homo sapiens (Human), UniProt Q96T53) (assay: Determination of hGOAT Activity in HEK293 Cells after Incubation with Test Compound). Conditions: HEK293 cells stably transfected with preproghrelin and human GOAT; octanoate-BSA 100 μM; acyl-ghrelin in medium by ELISA after 5 hours.
Type: cell-based
Summary of the method: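 HEK293 cells stably expressing preproghrelin and human GOAT were given serum-free medium with 100 μM octanoate-BSA plus compound (0.3% DMSO) for 5 h. Acyl-ghrelin in the medium was quantified by ELISA (A405, standard curve) as % of vehicle. IC50 was fitted from 8 concentrations.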

Chain of human GOAT (Q96T53 whole entry): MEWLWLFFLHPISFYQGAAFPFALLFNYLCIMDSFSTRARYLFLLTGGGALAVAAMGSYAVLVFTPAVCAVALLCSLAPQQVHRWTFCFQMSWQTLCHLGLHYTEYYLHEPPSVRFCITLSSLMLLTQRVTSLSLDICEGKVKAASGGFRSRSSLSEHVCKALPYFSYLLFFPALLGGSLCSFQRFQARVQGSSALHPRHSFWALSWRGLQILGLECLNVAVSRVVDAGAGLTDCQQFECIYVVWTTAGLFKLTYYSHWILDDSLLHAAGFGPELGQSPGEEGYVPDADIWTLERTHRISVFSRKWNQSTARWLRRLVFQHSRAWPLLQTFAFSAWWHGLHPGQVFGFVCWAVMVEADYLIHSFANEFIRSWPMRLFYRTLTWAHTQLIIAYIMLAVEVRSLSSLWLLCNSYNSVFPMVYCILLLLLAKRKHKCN

| Compound | IC50 |
| --- | --- |
| Cc1nc2nonc2c(N)c1Cc1cccc([S+](C)[O-])n1 (centres unmarked) [Example 85, 6-(6-Methanesulfinyl-pyridin-2-ylmethyl)-5-methyl-[1,2,5]oxadiazolo[3,4-b]pyridin-7-ylamine] | 6.9 nM |
| Cc1nc2nonc2c(N)c1Cc1cccc(Cl)n1 [Example 3, 6-(6-Chloro-pyridin-2-ylmethyl)-5-methyl-[1,2,5]oxadiazolo[3,4-b]pyridin-7-ylamine] | 0.46 nM |
| Cc1nc2nonc2c(N)c1Cc1ccc(F)c(C#N)n1 [Example 25, 6-(7-Amino-5-methyl-[1,2,5]oxadiazolo[3,4-b]pyridin-6-ylmethyl)-3-fluoro-pyridine-2-carbonitrile] | 4.4 nM |
| Cc1nc2nonc2c(N)c1Cc1cccc(-c2c(C)noc2C)n1 [Example 60, 6-[6-(3,5-Dimethyl-isoxazol-4-yl)-pyridin-2-ylmethyl]-5-methyl-[1,2,5]oxadiazolo[3,4-b]pyridin-7-ylamine] | 0.48 nM |
| Cc1nc2nonc2c(N)c1Cc1cccc(Br)n1 [Example 7, 6-(6-Bromo-pyridin-2-ylmethyl)-5-methyl-[1,2,5]oxadiazolo[3,4-b]pyridin-7-ylamine] | 0.95 nM |
| Cc1nc2nonc2c(N)c1Cc1ccc(C(F)(F)F)c(C#N)n1 [Example 48, 6-(7-Amino-5-methyl-[1,2,5]oxadiazolo[3,4-b]pyridin-6-ylmethyl)-3-trifluoromethyl-pyridine-2-carbonitrile] | 0.18 nM |
| Cc1nc2nonc2c(N)c1Cc1cccc(-c2ccco2)n1 [Example 57, 6-(6-Furan-2-yl-pyridin-2-ylmethyl)-5-methyl-[1,2,5]oxadiazolo[3,4-b]pyridin-7-ylamine] | 0.1 nM |
| Cc1nc2nonc2c(N)c1Cc1ccc(C#N)c(OCC(F)(F)F)n1 [Example 107, 6-(7-Amino-5-methyl-[1,2,5]oxadiazolo[3,4-b]pyridin-6-ylmethyl)-2-(2,2,2-trifluoro-ethoxy)-nicotinonitrile] | 0.33 nM |
| Cc1nc2nonc2c(N)c1Cc1ncc(Cl)cn1 [Example 30, 6-(5-Chloro-pyrimidin-2-ylmethyl)-5-methyl-[1,2,5]oxadiazolo[3,4-b]pyridin-7-ylamine] | 2.7 nM |
| Cc1nc2nonc2c(N)c1Cc1ncc(C(F)(F)F)cn1 [Example 35, 5-methyl-6-[5-(trifluoromethyl)pyrimidin-2-yl]methyl-[1,2,5]oxadiazolo[3,4-b]pyridin-7-amine] | 1.8 nM |
| CNC(=O)c1cccc(Cc2c(C)nc3nonc3c2N)n1 [Example 54, 6-(7-Amino-5-methyl-[1,2,5]oxadiazolo[3,4-b]pyridin-6-ylmethyl)-pyridine-2-carboxylic acid methylamide] | 0.24 nM |
| Cc1nc2nonc2c(N)c1Cc1ccc(Br)c(OC2COC2)n1 [Example 98, 6-[5-Bromo-6-(oxetan-3-yloxy)-pyridin-2-ylmethyl]-5-methyl-[1,2,5]oxadiazolo[3,4-b]pyridin-7-ylamine] | 1.9 nM |
| Cc1nc2nonc2c(N)c1Cc1ncc(C(F)(F)F)c(N)n1 [Example 46, 2-(7-amino-5-methyl-[1,2,5]oxadiazolo[3,4-b]pyridin-6-ylmethyl)-5-(trifluoromethyl)pyrimidin-4-amine] | 0.22 nM |
| Cc1nc2nonc2c(N)c1Cc1ccc(Br)c(OCC2(C)COC2)n1 [Example 95, 6-[5-Bromo-6-(3-methyl-oxetan-3-ylmethoxy)-pyridin-2-ylmethyl]-5-methyl-[1,2,5]oxadiazolo[3,4-b]pyridin-7-ylamine] | 0.082 nM |
| Cc1nc2nonc2c(N)c1Cc1ncc(C#N)c(N)n1 [Example 45, 4-amino-2-(7-amino-5-methyl-[1,2,5]oxadiazolo[3,4-b]pyridin-6-ylmethyl)pyrimidine-5-carbonitrile] | 1.2 nM |
| Cc1nc2nonc2c(N)c1Cc1ccc(Br)c(C#N)n1 [Example 71, 6-(7-Amino-5-methyl-[1,2,5]oxadiazolo[3,4-b]pyridin-6-ylmethyl)-3-bromopyridine-2-carbonitrile] | 0.22 nM |
| Cc1nc2nonc2c(N)c1Cc1ccc(OC(F)F)c(C#N)n1 [Example 70, 6-(7-Amino-5-methyl-[1,2,5]oxadiazolo[3,4-b]pyridin-6-ylmethyl)-3-difluoromethoxy-pyridine-2-carbonitrile] | 0.082 nM |
| Cc1nc2nonc2c(N)c1Cc1ccc(C(F)(F)F)c(C(N)=O)n1 [Example 89, 6-(7-Amino-5-methyl-[1,2,5]oxadiazolo[3,4-b]pyridin-6-ylmethyl)-3-trifluoromethyl-pyridine-2-carboxylic Acid Amide] | 0.43 nM |
| Cc1nc2nonc2c(N)c1Cc1ccc(C(F)(F)F)cn1 [Example 6, 5-Methyl-6-(5-trifluoromethyl-pyridin-2-ylmethyl)-[1,2,5]oxadiazolo[3,4-b]pyridin-7-ylamine] | 0.61 nM |
| Cc1nc2nonc2c(N)c1Cc1cccc(C(N)=O)n1 [Example 56, 6-(7-Amino-5-methyl-[1,2,5]oxadiazolo[3,4-b]pyridin-6-ylmethyl)-pyridine-2-carboxylic Acid Amide] | 0.72 nM |
| Cc1nc2nonc2c(N)c1Cc1ccc(C(F)F)cn1 [Example 9, 6-(5-Difluoromethyl-pyridin-2-ylmethyl)-5-methyl-[1,2,5]oxadiazolo[3,4-b]pyridin-7-ylamine] | 0.44 nM |
| Cc1nc2nonc2c(N)c1Cc1ccc(C#N)c(OCC2CC2(F)F)n1 (centres unmarked) [Example 112, 6-(7-Amino-5-methyl-[1,2,5]oxadiazolo[3,4-b]pyridin-6-ylmethyl)-2-(2,2-difluoro-cyclopropylmethoxy)-nicotinonitrile] | 0.22 nM |
| CSc1cccc(Cc2c(C)nc3nonc3c2N)n1 [Example 16, 5-Methyl-6-(6-methylsulfanyl-pyridin-2-ylmethyl)-[1,2,5]oxadiazolo[3,4-b]pyridin-7-ylamine] | 0.28 nM |
| COc1ccc(Cc2c(C)nc3nonc3c2N)nc1 [Example 1, 6-(5-Methoxy-pyridin-2-ylmethyl)-5-methyl-[1,2,5]oxadiazolo[3,4-b]pyridin-7-ylamine] | 1.4 nM |

Continued, values first:

| IC50 | Compound |
| --- | --- |
| 14 nM | Cc1nc2nonc2c(N)c1Cc1nc(C#N)cc(C(F)F)n1 [Example 165, 2-(7-amino-5-methyl-[1,2,5]oxadiazolo[3,4-b]pyridin-6-ylmethyl)-6-(difluoromethyl)pyrimidine-4-carbonitrile] |
| 3 nM | Cc1nc2nonc2c(N)c1Cc1ccc(S(C)(=O)=O)c(S(C)(=O)=O)n1 [Example 160, 6-(5,6-Bis-methanesulfonyl-pyridin-2-ylmethyl)-5-methyl-[1,2,5]oxadiazolo[3,4-b]pyridin-7-ylamine] |
| 0.17 nM | Cc1nc2nonc2c(N)c1Cc1ccc(Br)c(NCC2(C)CCOC2)n1 (centres unmarked) [Example 126, 6-{5-Bromo-6-[(3-methyl-tetrahydro-furan-3-ylmethyl)-amino]-pyridin-2-ylmethyl}-5-methyl-[1,2,5]oxadiazolo[3,4-b]pyridin-7-ylamine] |
| 31 nM | Cc1nc2nonc2c(N)c1Cc1ccc(C#N)c(=O)[nH]1 [Example 113, 6-(7-Amino-5-methyl-[1,2,5]oxadiazolo[3,4-b]pyridin-6-ylmethyl)-2-oxo-1,2-dihydro-pyridine-3-carbonitrile] |
| 3.9 nM | Cc1nc2nonc2c(N)c1Cc1ccc(OCC(F)(F)F)c(C#N)n1 [Example 114, 6-(7-Amino-5-methyl-[1,2,5]oxadiazolo[3,4-b]pyridin-6-ylmethyl)-3-(2,2,2-trifluoro-ethoxy)-pyridine-2-carbonitrile] |
| 1.2 nM | Cc1nc2nonc2c(N)c1Cc1ccc(OCCF)c(C#N)n1 [Example 115, 6-(7-Amino-5-methyl-[1,2,5]oxadiazolo[3,4-b]pyridin-6-ylmethyl)-3-(2-fluoro-ethoxy)-pyridine-2-carbonitrile] |
| 0.15 nM | Cc1nc2nonc2c(N)c1Cc1ccc(C#N)c(NCC(C)(C)C(N)=O)n1 [Example 148, 3-[6-(7-Amino-5-methyl-[1,2,5]oxadiazolo[3,4-b]pyridin-6-ylmethyl)-3-cyano-pyridin-2-ylamino]-2,2-dimethyl-propionamide] |
| 0.17 nM | Cc1nc2nonc2c(N)c1Cc1ccc(NCC(F)F)c(C#N)n1 [Example 154, 6-(7-Amino-5-methyl-[1,2,5]oxadiazolo[3,4-b]pyridin-6-ylmethyl)-3-(2,2-difluoro-ethylamino)-pyridine-2-carbonitrile] |
| 0.038 nM | Cc1nc2nonc2c(N)c1Cc1ccc(Br)c(NC2CC2)n1 [Example 125, 6-(5-Bromo-6-cyclopropylamino-pyridin-2-ylmethyl)-5-methyl-[1,2,5]oxadiazolo[3,4-b]pyridin-7-ylamine] |
| 0.6 nM | Cc1nc2nonc2c(N)c1Cc1ccc(N2CCOCC2)c(C#N)n1 [Example 152, 6-(7-Amino-5-methyl-[1,2,5]oxadiazolo[3,4-b]pyridin-6-ylmethyl)-3-morpholin-4-yl-pyridine-2-carbonitrile] |
| 1.2 nM | Cc1nc2nonc2c(N)c1Cc1ccc(-n2cc(F)cn2)c(C#N)n1 [Example 155, 6-(7-Amino-5-methyl-[1,2,5]oxadiazolo[3,4-b]pyridin-6-ylmethyl)-3-(4-fluoro-pyrazol-1-yl)-pyridine-2-carbonitrile] |
| 0.054 nM | Cc1nc2nonc2c(N)c1Cc1ccc(C#N)c(N2CC3(COC3)C2)n1 [Example 137, 6-(7-Amino-5-methyl-[1,2,5]oxadiazolo[3,4-b]pyridin-6-ylmethyl)-2-(2-oxa-6-aza-spiro[3.3]hept-6-yl)-nicotinonitrile] |
| 0.14 nM | Cc1nc2nonc2c(N)c1Cc1ccc(C#N)c(N2CCNC(=O)CC2)n1 [Example 141, 6-(7-Amino-5-methyl-[1,2,5]oxadiazolo[3,4-b]pyridin-6-ylmethyl)-2-(5-oxo-[1,4]diazepan-1-yl)-nicotinonitrile] |
| 0.15 nM | Cc1nc2nonc2c(N)c1Cc1ccc(C#N)c(NC2CC(F)(F)C2)n1 [Example 140, 6-(7-Amino-5-methyl-[1,2,5]oxadiazolo[3,4-b]pyridin-6-ylmethyl)-2-(3,3-difluoro-cyclobutylamino)-nicotinonitrile] |
